Source: ChEMBL document CHEMBL1151901, “3-(aminomethyl)piperazine-2,5-dione as a novel NMDA glycine site inhibitor from the chemical universe database GDB” (Bioorg Med Chem Lett, 2009)
The source made the active and inactive calls. The calls are words filed in the database; no cut-off is given here.

Columns and labels:
[1] = molecular target: Glutamate NMDA receptor (Rattus norvegicus) (UniProt P35439+Q00959+Q00960+Q00961+Q62645+Q8VHN2+Q9R1M7); experiment: Displacement of [3H]MDL105519 from rat brain NMDA receptor glycine binding site at 100 uM by Packard Topcount scintillation counter
[2] = molecular target: Glutamate NMDA receptor; Grin1/Grin2a (Rattus norvegicus, UniProt P35439+Q00959); experiment: Activity at rat NR1/NR2A receptor expressed in Xenopus oocytes assessed as inhibition of glycine-induced electrophysiological response; format: cell-based, Oocyte
Chain of Glutamate NMDA receptor; Grin1/Grin2a (Q00959 whole entry, other chains not shown): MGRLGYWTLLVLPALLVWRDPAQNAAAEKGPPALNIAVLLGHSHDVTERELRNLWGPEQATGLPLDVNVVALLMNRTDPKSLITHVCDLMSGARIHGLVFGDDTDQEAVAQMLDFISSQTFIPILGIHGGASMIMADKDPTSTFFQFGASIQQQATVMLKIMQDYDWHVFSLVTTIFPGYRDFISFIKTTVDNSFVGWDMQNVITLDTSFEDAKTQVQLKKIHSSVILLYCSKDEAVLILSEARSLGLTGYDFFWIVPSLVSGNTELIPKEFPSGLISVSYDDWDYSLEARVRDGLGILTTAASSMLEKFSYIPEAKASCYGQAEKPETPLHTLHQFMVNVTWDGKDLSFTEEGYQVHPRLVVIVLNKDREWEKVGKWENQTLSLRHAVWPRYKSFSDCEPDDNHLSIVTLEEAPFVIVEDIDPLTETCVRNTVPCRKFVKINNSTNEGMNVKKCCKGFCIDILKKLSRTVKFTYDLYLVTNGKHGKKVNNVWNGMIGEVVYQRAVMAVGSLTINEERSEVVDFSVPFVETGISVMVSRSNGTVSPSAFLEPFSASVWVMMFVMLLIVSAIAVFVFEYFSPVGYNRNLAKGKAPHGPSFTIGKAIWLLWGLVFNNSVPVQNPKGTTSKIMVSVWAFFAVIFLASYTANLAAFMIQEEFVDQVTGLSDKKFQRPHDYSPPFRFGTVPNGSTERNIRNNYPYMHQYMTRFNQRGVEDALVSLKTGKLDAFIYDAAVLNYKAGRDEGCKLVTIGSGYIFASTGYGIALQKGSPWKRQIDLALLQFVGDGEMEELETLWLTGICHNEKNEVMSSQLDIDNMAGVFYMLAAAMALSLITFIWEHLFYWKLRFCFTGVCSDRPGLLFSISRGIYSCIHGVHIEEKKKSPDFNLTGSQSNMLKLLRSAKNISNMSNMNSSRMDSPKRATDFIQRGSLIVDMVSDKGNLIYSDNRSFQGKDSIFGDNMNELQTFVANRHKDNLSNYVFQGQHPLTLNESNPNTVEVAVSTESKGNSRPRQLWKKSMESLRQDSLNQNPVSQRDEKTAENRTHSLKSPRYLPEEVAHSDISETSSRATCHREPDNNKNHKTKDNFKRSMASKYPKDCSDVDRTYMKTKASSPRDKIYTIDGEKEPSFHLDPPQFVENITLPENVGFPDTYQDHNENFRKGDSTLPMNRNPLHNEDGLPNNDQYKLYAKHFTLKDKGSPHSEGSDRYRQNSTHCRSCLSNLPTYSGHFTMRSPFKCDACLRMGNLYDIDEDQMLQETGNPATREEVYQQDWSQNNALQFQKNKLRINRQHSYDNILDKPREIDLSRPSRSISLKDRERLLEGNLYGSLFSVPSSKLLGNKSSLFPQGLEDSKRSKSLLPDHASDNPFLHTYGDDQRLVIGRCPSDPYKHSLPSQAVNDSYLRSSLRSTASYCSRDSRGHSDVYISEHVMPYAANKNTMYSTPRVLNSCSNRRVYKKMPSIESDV

Activity [1] | IC50 [2] [µM] | inhibition [1] [%] | Kd [2] [µM] | Compound
inactive | – | – | – | NCC1CNC(=O)C(=O)N1 (racemic)
– | 28 | – | – | C[C@H](N)CC(=O)NCC(=O)O
– | 65 | – | – | NCCCC(=O)NCC(=O)O
– | 370 | 30 | 50 | NC[C@@H]1NC(=O)CNC1=O
